Test results taken from patent US8927563B2, “Kinase inhibitor” (Respivert Limited, priority 2013, dated 2015).

What was measured:
[1] = molecular target: T1, Lck (Homo sapiens (Human), UniProt P06239); assay: KINOMEscan dissociation constant, Lck; format: binding
Protocol: (§1) Kinase enzyme binding activities of compounds disclosed herein may be determined using a proprietary assay which measures active site-directed competition binding to an immobilized ligand (Fabian, M. A. et al., Nature Biotechnol., 2005, 23:329-336). These assays may be conducted by DiscoverX (formerly Ambit; San Diego, Calif.). The percentage inhibition produced by incubation with a test compound may be calculated relative to the non-inhibited control.

[2] = molecular target: B-Raf (V600E) (Homo sapiens (Human), UniProt P15056, V600E); assay: KINOMEscan binding of B-Raf (V600E) to standard ligand
Chain of B-Raf (V600E) (P15056 whole entry V600E): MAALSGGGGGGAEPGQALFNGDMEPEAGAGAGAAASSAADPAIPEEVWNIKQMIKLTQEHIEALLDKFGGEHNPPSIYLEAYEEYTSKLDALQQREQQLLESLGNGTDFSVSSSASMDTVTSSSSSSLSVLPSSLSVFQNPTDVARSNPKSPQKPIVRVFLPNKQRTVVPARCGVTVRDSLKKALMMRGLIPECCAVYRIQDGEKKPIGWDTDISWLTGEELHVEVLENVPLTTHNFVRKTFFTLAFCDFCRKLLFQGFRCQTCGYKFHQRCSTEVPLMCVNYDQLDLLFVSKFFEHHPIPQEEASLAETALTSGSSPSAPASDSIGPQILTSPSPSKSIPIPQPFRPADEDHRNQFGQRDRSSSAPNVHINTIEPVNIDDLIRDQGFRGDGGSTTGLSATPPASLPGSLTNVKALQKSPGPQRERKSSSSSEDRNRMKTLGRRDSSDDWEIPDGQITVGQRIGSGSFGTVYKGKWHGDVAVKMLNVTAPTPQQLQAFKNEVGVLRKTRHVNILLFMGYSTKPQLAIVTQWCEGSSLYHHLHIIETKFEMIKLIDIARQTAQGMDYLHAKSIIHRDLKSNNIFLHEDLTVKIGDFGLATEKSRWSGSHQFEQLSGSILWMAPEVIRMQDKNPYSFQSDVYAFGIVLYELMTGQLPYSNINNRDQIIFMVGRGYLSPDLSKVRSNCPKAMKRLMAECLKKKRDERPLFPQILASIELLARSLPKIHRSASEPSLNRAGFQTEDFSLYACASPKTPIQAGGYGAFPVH
Protocol: as §1

[3] = molecular target: c-Src (Homo sapiens (Human), UniProt P12931); assay: c-Src enzyme inhibition, Z-LYTE FRET; format: biochemical
Chain of c-Src (P12931 whole entry, looked up): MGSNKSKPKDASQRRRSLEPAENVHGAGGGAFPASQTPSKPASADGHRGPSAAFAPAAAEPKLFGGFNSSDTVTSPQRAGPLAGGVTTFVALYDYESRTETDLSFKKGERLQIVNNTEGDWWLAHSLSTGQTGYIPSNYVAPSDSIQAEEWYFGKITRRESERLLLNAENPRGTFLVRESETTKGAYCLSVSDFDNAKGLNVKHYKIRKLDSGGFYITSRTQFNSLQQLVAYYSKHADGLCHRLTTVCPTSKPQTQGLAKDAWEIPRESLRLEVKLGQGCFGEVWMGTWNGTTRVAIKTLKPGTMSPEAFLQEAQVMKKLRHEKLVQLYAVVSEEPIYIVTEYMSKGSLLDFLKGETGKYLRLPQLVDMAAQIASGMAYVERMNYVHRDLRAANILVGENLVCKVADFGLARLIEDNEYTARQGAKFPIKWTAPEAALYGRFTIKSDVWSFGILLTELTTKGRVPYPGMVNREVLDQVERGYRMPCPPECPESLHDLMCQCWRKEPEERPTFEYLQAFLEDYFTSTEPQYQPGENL
Protocol: (§2) The enzyme inhibitory activities of compounds disclosed herein are determined by FRET using synthetic peptides labelled with both donor and acceptor fluorophores (Z-LYTE, Invitrogen Ltd., Paisley, UK).
The inhibitory activities of the compound of the invention against c-Src and Syk enzymes (Invitrogen) are evaluated in a similar fashion to that described hereinabove. The relevant enzyme (3000 ng/mL or 2000 ng/mL respectively, 2.5 μL) is incubated with the test compound (either 1 μg/mL, 0.1 μg/mL, 0.01 μg/mL, or 0.001 μg/mL, 2.5 μL each) for 2 hr at RT. The FRET peptides (8 μM, 2.5 μL) and appropriate ATP solutions (2.5 μL, 800 μM for c-Src, and 60 μM ATP for Syk) are then added to the enzymes/compound mixtures and the mixture incubated for 1 hr. Development reagent (protease, 5 μL) is added for 1 hr prior to detection in a fluorescence microplate reader (Varioskan® Flash, ThermoFisher Scientific).
(§3) In all cases, the site-specific protease cleaves non-phosphorylated peptide only and eliminates the FRET signal. Phosphorylation levels of each reaction are calculated using the ratio of coumarin emission (donor) over fluorescein emission (acceptor), for which high ratios indicate high phosphorylation and low ratios indicate low phosphorylation levels.

[4] = molecular target: GSK3α (Homo sapiens (Human), UniProt P49840); assay: GSK3α enzyme inhibition (Method 2), Z-LYTE FRET; format: biochemical
Chain of GSK3α (P49840 whole entry): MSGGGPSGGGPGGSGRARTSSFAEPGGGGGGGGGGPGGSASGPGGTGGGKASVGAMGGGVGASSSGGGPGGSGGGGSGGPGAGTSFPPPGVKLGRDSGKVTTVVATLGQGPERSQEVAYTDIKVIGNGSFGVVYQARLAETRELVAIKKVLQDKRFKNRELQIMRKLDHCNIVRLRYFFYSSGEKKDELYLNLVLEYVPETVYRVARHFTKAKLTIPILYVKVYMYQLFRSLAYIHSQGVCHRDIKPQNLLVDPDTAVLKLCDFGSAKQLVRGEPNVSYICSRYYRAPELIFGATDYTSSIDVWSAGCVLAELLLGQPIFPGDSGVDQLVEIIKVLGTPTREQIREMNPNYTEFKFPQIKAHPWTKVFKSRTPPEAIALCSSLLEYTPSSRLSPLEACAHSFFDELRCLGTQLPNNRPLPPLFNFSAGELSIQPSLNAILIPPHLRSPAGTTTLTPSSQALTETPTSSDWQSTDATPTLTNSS
Protocol: as §2
The inhibitory activities of the compound of the invention against the GSK 3α enzyme isoform (Invitrogen), are evaluated by determining the level of activation/phosphorylation of the target peptide. The GSK3-α protein (500 ng/mL, 2.5 μL) is mixed with the test compound (2.5 μL at either 4 μg/mL, 0.4 μg/mL, 0.04 μg/mL, or 0.004 μg/mL) for 2 hr at RT. The FRET peptide (8 μM, 2.5 μL), which is a phosphorylation target for GSK3α, and ATP (40 μM, 2.5 μL) are then added to the enzyme/compound mixture and the resulting mixture incubated for 1 hr. Development reagent (protease, 5 μL) is added for 1 hr prior to detection in a fluorescence microplate reader (Varioskan® Flash, ThermoFisher Scientific).
as §3, with “levels. […]” for “levels.”

[5] = molecular target: T1, Lck; assay: Phosphoflow assay, cellular Lck inhibition in Jurkat cells; format: cell-based; conditions: H2O2 stimulated, read-out: IC50 Values, phospho-Lck (converted)
Protocol: Jurkat T cells were cultured in starve medium (RPMI 1640+5% FBS) for 24 h prior to the experiment. Cells were harvested and resuspended at 10×10^6 cells/mL in starve medium and then plated into round-bottomed 96 well plates at 1×10^6 cells/well. Serial dilutions of test compound were added (1% final DMSO concentration) for 2 h prior to stimulation. Following pre-incubation with compound, cells were stimulated with H2O2 (0.05% final) for 5 min. The reaction was stopped by centrifugation at 2000 rpm (3 min, 4° C.), then the supernatant was removed and 100 μL of cold fix/perm solution (BD Fix/Perm kit #554714) added. Plates were incubated for 20 min at 4° C. before centrifugation and washing with supplied 1× wash medium (BD Fix/Perm kit #554714). Cells were stained for either phospho-p38α (T180/182), supplied by Cell Signalling Technology (9211s), or phospho-Lck (Y394), supplied by R&D (MAB7500). Antibodies were diluted to 5 μg/mL (R&D) or 1:200 (Cell Signalling Technology) in wash medium, before being incubated 1 h at 4° C. in the dark. Following 3 repeat washes with ice cold wash buffer, secondary antibody (anti-rabbit-FITC #F1362 or anti-mouse-FITC #F2883, both from Sigma) was added at a dilution of 1:1000 and incubated for 1 h at 4° C. in the dark. […] Cells were analysed by flow cytometry using BD Accuri C6.

[6] = system: TNBS-induced colitis; assay: TNBS-induced colitis in mice; format: in vivo
Protocol: Non-fasted, 10-12 week old, male BDF1 mice are dosed by oral gavage twice daily with either vehicle (5 mL/kg), reference item (Budesonide 2.5 mg/kg) or test compound (1 or 5 mg/kg) one day before (Day −1) stimulation of the inflammatory response by treatment with 2,4,6-trinitrobenzenesulphonic acid (TNBS) (15 mg/mL in 50% ethanol/50% saline). On Day 0 of the study, TNBS (200 μL) is administered intra-colonically via a plastic catheter with BID dosing of the vehicle, reference or test compound continuing for 2 or 4 days. During the study, animals are weighed every day and stool observations are made and recorded as a score, based on stool consistency. At the time of sacrifice on Day 2 (or Day 4), the large intestine is removed and the length and weight recorded. Sections of the colon are taken for histopathology scoring to determine disease severity.

[7] = molecular target: hERG (Homo sapiens (Human), UniProt Q12809); assay: hERG inhibition, IonWorks patch clamp electrophysiology; format: cell-based; conditions: human, 3 μM
Chain of hERG (Q12809 whole entry): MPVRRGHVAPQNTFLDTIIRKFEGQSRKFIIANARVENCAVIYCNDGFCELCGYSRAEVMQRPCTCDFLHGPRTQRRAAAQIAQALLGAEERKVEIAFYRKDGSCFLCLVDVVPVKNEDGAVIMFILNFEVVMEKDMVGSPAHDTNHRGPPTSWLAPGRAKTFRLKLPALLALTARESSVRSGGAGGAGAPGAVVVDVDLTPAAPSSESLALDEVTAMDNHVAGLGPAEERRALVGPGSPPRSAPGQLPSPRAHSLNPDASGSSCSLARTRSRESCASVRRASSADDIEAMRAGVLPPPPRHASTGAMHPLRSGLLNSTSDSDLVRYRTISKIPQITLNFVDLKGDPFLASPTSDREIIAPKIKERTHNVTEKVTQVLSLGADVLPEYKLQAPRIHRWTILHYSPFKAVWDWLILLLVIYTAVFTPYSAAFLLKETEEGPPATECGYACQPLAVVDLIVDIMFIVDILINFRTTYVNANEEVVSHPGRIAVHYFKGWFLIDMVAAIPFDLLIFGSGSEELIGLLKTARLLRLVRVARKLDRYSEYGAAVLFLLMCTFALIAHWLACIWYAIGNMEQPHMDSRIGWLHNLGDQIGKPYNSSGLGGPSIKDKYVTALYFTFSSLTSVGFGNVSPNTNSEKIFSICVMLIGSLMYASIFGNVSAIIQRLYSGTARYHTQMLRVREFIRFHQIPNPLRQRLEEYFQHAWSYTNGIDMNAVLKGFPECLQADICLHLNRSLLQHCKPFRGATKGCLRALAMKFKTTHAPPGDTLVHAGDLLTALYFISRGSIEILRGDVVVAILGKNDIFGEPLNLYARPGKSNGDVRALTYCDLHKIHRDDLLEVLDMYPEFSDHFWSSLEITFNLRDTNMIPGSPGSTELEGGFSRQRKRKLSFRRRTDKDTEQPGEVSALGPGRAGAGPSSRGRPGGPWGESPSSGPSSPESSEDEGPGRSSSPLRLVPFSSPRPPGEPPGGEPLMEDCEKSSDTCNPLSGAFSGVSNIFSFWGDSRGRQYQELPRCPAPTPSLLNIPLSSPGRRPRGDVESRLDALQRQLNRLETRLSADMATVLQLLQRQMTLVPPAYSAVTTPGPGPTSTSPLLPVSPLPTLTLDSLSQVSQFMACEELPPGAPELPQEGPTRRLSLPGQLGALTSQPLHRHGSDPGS
Protocol: (§4) Compound I was tested for inhibition of the human ether a go-go (hERG) channel using IonWorks™ patch clamp electrophysiology at Essen Bioscience (Welwyn Garden City, England).

[8] = molecular target: human ether a go-go (hERG) channel (Homo sapiens (Human), UniProt Q12809); assay: as above; format: cell-based
Chain of human ether a go-go (hERG) channel (Q12809 whole entry): as above
Protocol: as §4

[9] = 5 mg/kg orally BID, 2 days, SMEDDS vehicle

T1 sequence (P06239 whole entry): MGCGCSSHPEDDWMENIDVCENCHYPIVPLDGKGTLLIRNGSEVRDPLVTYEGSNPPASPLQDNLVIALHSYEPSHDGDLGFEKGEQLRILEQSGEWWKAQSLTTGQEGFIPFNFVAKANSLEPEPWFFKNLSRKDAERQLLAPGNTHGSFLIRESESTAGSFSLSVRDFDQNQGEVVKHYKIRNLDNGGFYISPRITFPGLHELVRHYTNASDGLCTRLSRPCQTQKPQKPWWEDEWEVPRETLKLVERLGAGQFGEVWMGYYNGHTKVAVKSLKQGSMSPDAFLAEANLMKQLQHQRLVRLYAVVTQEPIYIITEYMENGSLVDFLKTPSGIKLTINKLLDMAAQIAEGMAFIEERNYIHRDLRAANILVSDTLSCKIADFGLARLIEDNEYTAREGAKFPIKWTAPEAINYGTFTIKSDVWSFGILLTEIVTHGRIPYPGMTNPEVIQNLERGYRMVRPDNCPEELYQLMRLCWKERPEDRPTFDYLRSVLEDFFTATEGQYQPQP

SMILES: C#Cc1cc(Nc2nccc(Oc3ccc(NC(=O)Nc4cc(C(C)(C)C)cc(NS(C)(=O)=O)c4OC)c4ccccc34)n2)cc(C(=O)NCCOCCOCCOC)c1 [Compound I, 3-((4-((4-(3-(5-(tert-Butyl)-2-methoxy-3-(methylsulfonamido)phenyl)ureido)naphthalen-1-yl)oxy)pyrimidin-2-yl)amino)-5-ethynyl-N-(2-(2-(2-methoxyethoxy)ethoxy)ethyl)benzamide]
- Kd [1]: 0.0041 µM
- effect on binding of B-Raf (V600E) to its standard ligand [2]: did not have any significant effect
- IC50 [3]: 0.024 µM
- IC50 [4]: 0.411 µM
- IC50 [5]: 0.00714 µM
- LP inflammation [6, 9]: 3.8 ± 0.4
- Ulcer grade [6, 9]: 3.6 ± 0.5
- inflammatory cell infiltrate in the reticular and laminar propria zones ([6]; dosed orally at 5 mg/kg): marked reduction
- ulcer grade and epithelial repair compared to the vehicle control ([6]; dosed orally at 5 mg/kg): marked improvements
- inhibition at 3 µM [7]: -12 ± 4%
- IC50 [8]: > 3 µM
